Source: US10407467B2, “Polymyxin derivatives and their use in combination therapy together with different antibiotics” (priority 2013, dated 2019)
Structures can show the parent of a compound that is named as a salt. Where two headings read alike, the source gives them in different places. Bridge positions count the residues as written; N and C are the ends. Square brackets hold non-standard residues; d marks the D form. Peptide text beside a SMILES is read from it. * marks the point of attachment. ξ: configuration not given here. X18 = O=C([C@H]1CC[C@H](O)CC1)*; Thr(3ξ) = CC(O)[C@H](N)C(=O)O; Dab = NCC[C@H](N)C(=O)O; X23 = O=C(CCCN1CCOCC1)*

Legend:
Assay type in all cases: cell-based
[1] = tested on: Pseudomonas aeruginosa; assay: MIC, sole activity (no second agent); conditions: for MIC: Pseudomonas aeruginosa, ATCC10145, read-out: MIC P. aeruginosa ATCC 10145
Protocol: (§1) To evaluate the potency and spectrum of the compounds both alone and in combination with another agent, susceptibility testing was performed against up to four strains of each of the four Gram negative pathogens, Escherichia coli, Pseudomonas aeruginosa, Klebsiella pneumoniae and Acinetobacter baumannii.
(§2) The inoculum was prepared by making a direct suspension of isolated colonies (selected from an 18-24 hour Mueller-Hinton agar plate) adjusted to the 0.5 McFarland standard.
(§3) The assays were performed in duplicate.
(§4) In cases where the duplicate values varied by less than 2-fold, the lower of the two values is reported. If a variation of greater than 2-fold was observed, the assay was considered non-valid. Several of the compounds were subjected to multiple tests, and where this is the case, the MIC reflects the modal value obtained.
(§5) MICs were determined as described herein, except that a different supplier of Cation-adjusted MHB was used. […] Values are reported relative to Polymyxin B.

[2] = tested on: Klebsiella pneumoniae; assay: MIC, sole activity (no second agent); conditions: for MIC: Klebsiella pneumoniae
Protocol: as §1, §2, §3, §4, §5

[3] = tested on: Acinetobacter baumannii; assay: MIC, sole activity (no second agent); conditions: for MIC A. baumannii ATCC BAA-747 / MIC A. baumannii NCTC 13424: Table 6A, no second agent, different supplier of Cation-adjusted MHB; for MIC: Acinetobacter baumannii, NCTC13424
Protocol: as §1, §2, §3, §4, §5

[4] = tested on: Escherichia coli; assay: MIC, sole activity (no second agent); conditions: for MIC: Escherichia coli
Protocol: as §1, §2, §3, §4, §5

[5] = tested on: Pseudomonas aeruginosa; assay: MIC, compound in combination with a second agent (broth microdilution); conditions: 1:1 (wt:wt) combination with Rifampicin; MIC = total drug concentration; strain CCUG 59626
Protocol: as §1
(§6) Ratios of components in a combination, such as 1:1, refers to a weight to weight ratio. The minimum inhibitory concentration (MIC) refers to the total drug concentration (e.g. test compound plus second agent, such as Rifampicin).
as §2, §3, §4
(§7) The minimum inhibitory concentration refers to the total drug concentration (e.g. test compound plus Rifampicin). The compounds are used at equal mass within the combination. The weight refers to the mass of compound as used, for example the Example Compounds are used in their TFA or sulphate salt forms.
(§8) MICs refer to the total drug concentration. Thus, where a 1:1 combination is used, this is the amount of the test compound plus the second agent. For comparison, the MIC values for the second agent alone are also given.

[6] = tested on: Klebsiella pneumoniae; assay: as above; conditions: 1:1 (wt:wt) combination with Rifampicin, MIC = total drug concentration; for MIC K. pneumoniae ATCC-BAA-2146: strain ATCC-BAA-2146; for MIC K. pneumoniae CCUG-59348: strain CCUG-59348
Protocol: as §1, §6, §2, §3, §4, §7, §8

[7] = Table 6A, no second agent, different supplier of Cation-adjusted MHB
[8] = in the absence of Rifampicin, strain ATCC27853
[9] = in the absence of Rifampicin, strain ATCC 4352
[10] = in the absence of Rifampicin, strain ATCC25922

Compound	MIC P. aeruginosa ATCC 27853 [1, 7] [micrograms/mL]	MIC P. aeruginosa CCUG 59347 [1, 7] [micrograms/mL]	MIC K. pneumoniae ATCC 4352 [2, 7] [micrograms/mL]	MIC K. pneumoniae ATCC BAA-2146 [2, 7] [micrograms/mL]	MIC A. baumannii ATCC BAA-747 [3] [micrograms/mL]	MIC A. baumannii NCTC 13424 [3] [micrograms/mL]	MIC E. coli NCTC 13441 [4, 7] [micrograms/mL]	MIC E. coli ATCC25922 [4, 7] [micrograms/mL]	also measured
2-(1- (Aminomethyl)cyclohexyl) ethanoyl Polymyxin B nonapeptide [Example A30]	0.5	1	0.5	1	8	8	1	–	–
2-(1- Hydroxycyclohexyl)ethanoyl polymyxin B nonapeptide [Example A15]	4	8	4	–	>8	>8	8	8	–
2-(R)-(2-amino-2- cyclohexyl)ethanoyl polymyxin B nonapeptide [Example A38]	0.5	1	0.5	2	1	2	2	0.5	–
2-(RS)-2-aminooctyl polymyxin B decapeptide [Example A5]	0.25	0.5	0.5	0.5	1	2	–	0.5	–
2-Aminomethylbenzoyl polymyxin B nonapeptide [Example A31]	0.5	2	2	>8	>8	>8	2	8	–
3-(R)-3-Amino-5- methylhexanoyl polymyxin B nonapeptide [Example A45]	0.5	1	1	–	>8	>8	2	2	–
3-(RS)-3-amino octanoyl polymyxin B nonapeptide. Isomer 1 [Example A32]	0.5	1	0.5	0.25	2	2	0.5	0.5	–
3-Methylpiperidine-3- carbonyl polymyxin B nonapeptide [Example A39]	2	4	8	>8	>8	>8	8	>8	–
4-[3(R,S)-3-Amino-3- cyclohexanepropanamido] piperidine-4-carbonyl polymyxin B nonapeptide [Example A28]	2	4	>8	>8	>8	>8	>8	>8	–
5-Hydroxypiperidine-3- carbonyl polymyxin B nonapeptide [Example A50]	1	2	0.25	2	–	2	2	1	–
CC[C@H]1OC(=O)[C@H](C)[C@@H](O[C@H]2C[C@@](C)(OC)[C@@H](O)[C@H](C)O2)[C@H](C)[C@@H](O[C@@H]2O[C@H](C)C[C@H](N(C)C)[C@H]2O)[C@](C)(O)C[C@@H](C)CN(C)[C@H](C)[C@@H](O)[C@]1(C)O [Azithromycin, reference compound]	–	–	–	–	–	–	–	–	MIC ([1]; Table 7F, P. aeruginosa ATCC 10145, second agent none): 32 µg/mL; MIC ([2]; CCUG59349, Table 7F, K. pneumoniae CCUG 59349, second agent none, read-out: MIC K. pneumoniae CCUG 59349): > 32 µg/mL; MIC ([2]; Table 7F, K. pneumoniae ATCC4352, second agent none, read-out: MIC K. pneumoniae ATCC4352): 0.25 µg/mL; MIC ([3]; Table 7F, A. baumannii NCTC 13424, second agent none): 8 µg/mL; MIC ([4]; NCTC13441, Table 7F, E. coli NCTC 13441, second agent none, read-out: MIC E. coli NCTC 13441): > 32 µg/mL; MIC ([4]; Table 7F, E. coli ATCC25922, second agent none, read-out: MIC E. coli ATCC25922): 1 µg/mL
C[C@H]1[C@H](NC(=O)/C(=N\OC(C)(C)C(=O)O)c2csc(N)n2)C(=O)N1S(=O)(=O)O [Aztreonam, reference compound]	–	–	–	–	–	–	–	–	MIC ([1]; Second Agent none (Table 7E)): 4 µg/mL; MIC ([2]; ATCC4352, Second Agent none (Table 7E), read-out: MIC K. pneumoniae ATCC4352): ≤ 0.06 µg/mL; MIC ([2]; CCUG59349, Second Agent none (Table 7E), read-out: MIC K. pneumoniae CCUG 59349): > 32 µg/mL; MIC ([3]; Second Agent none (Table 7E), read-out: MIC A. baumannii NCTC 13424): 8 µg/mL; MIC ([4]; ATCC25922, Second Agent none (Table 7E), read-out: MIC E. coli ATCC25922): ≤ 0.06 µg/mL; MIC ([4]; NCTC13441, Second Agent none (Table 7E), read-out: MIC E. coli NCTC 13441): > 32 µg/mL
CC(C)C[C@@H]1NC(=O)[C@@H](Cc2ccccc2)NC(=O)[C@H](CCN)NC(=O)[C@@H](NC(=O)[C@H](CCN)NC(=O)[C@@H](NC(=O)CCCN2CCOCC2)C(C)O)CCNC(=O)[C@H](C(C)O)NC(=O)[C@H](CCN)NC(=O)[C@H](CCN)NC1=O (stereo partly shown) [Example 14, 4- Morpholinylbutanoyl polymyxin B nonapeptide, trifluoroacetate salt] (X23-[Thr(3ξ)][Dab][Dab][Dab][dF]L[Dab][Dab][Thr(3ξ)]; lactam 3-C)	–	–	–	–	–	–	–	–	MIC P. aeruginosa ATCC 27853 [1, 8]: 1 micrograms/mL; MIC K. pneumoniae ATCC 4352 [2, 9]: >32 micrograms/mL; MIC E. coli ATCC25922 [4, 10]: 4 micrograms/mL; MIC P. aeruginosa CCUG 59626 [5]: 0.5 micrograms/mL; MIC K. pneumoniae ATCC-BAA-2146 [6]: 2 micrograms/mL; MIC K. pneumoniae CCUG-59348 [6]: 16 micrograms/mL
CC(C)C[C@@H]1NC(=O)[C@@H](Cc2ccccc2)NC(=O)[C@H](CCN)NC(=O)[C@@H](NC(=O)[C@H](CCN)NC(=O)[C@@H](NC(=O)[C@H]2CC[C@H](O)CC2)C(C)O)CCNC(=O)[C@H](C(C)O)NC(=O)[C@H](CCN)NC(=O)[C@H](CCN)NC1=O (stereo partly drawn) [Example 25, trans-4-hydroxycyclohexane carbonyl polymyxin B nonapeptide] (X18-[Thr(3ξ)][Dab][Dab][Dab][dF]L[Dab][Dab][Thr(3ξ)]; lactam 3-C)	–	–	–	–	–	–	–	–	MIC P. aeruginosa ATCC 27853 [1, 8]: 0.125 micrograms/mL; MIC K. pneumoniae ATCC 4352 [2, 9]: 4 micrograms/mL; MIC E. coli ATCC25922 [4, 10]: 8 micrograms/mL; MIC P. aeruginosa CCUG 59626 [5]: 0.5 micrograms/mL; MIC K. pneumoniae ATCC-BAA-2146 [6]: 1 micrograms/mL; MIC K. pneumoniae CCUG-59348 [6]: 8 micrograms/mL; MIC K. pneumoniae NCTC 13438 ([6]; strain NCTC 13438): 2 micrograms/mL
